In ChEMBL document CHEMBL3797048, “Structure-activity relationship studies of new rifamycins containing l-amino acid esters as inhibitors of bacterial RNA polymerases” (Eur J Med Chem, 2016):
In brackets after ≈: the same amount, converted by molar mass.

Assays:
Staphylococcus aureus [1] = assay: Antibacterial activity against Staphylococcus aureus ATCC 4163 after 18 hrs by microdilution method; format: functional; conditions: ATCC 4163, 18 h
Staphylococcus aureus [2] = assay: Antibacterial activity against Staphylococcus aureus ATCC 25923 after 18 hrs by microdilution method; format: functional; conditions: ATCC 25923, 18 h
Staphylococcus aureus [3] = assay: Antibacterial activity against Staphylococcus aureus ATCC 6538 after 18 hrs by microdilution method; format: functional; conditions: ATCC 6538, 18 h
[4] = system: Staphylococcus epidermidis; assay: Antibacterial activity against Staphylococcus epidermidis ATCC 12228 after 18 hrs by microdilution method; format: functional; conditions: ATCC 12228, 18 h
[5] = system: Staphylococcus epidermidis; assay: Antibacterial activity against Staphylococcus epidermidis ATCC 49134 after 18 hrs by microdilution method; format: functional; conditions: ATCC 49134, 18 h
Staphylococcus aureus [6] = assay: Antibacterial activity against methicillin resistant Staphylococcus aureus isolate 1 after 18 hrs by microdilution method; format: functional; conditions: isolate 1, 18 h
Staphylococcus aureus [7] = assay: Antibacterial activity against methicillin resistant Staphylococcus aureus isolate 2 after 18 hrs by microdilution method; format: functional; conditions: isolate 2, 18 h
Staphylococcus aureus [8] = assay: Antibacterial activity against methicillin resistant Staphylococcus aureus isolate 3 after 18 hrs by microdilution method; format: functional; conditions: isolate 3, 18 h
Staphylococcus aureus [9] = assay: Antibacterial activity against methicillin resistant Staphylococcus aureus isolate 4 after 18 hrs by microdilution method; format: functional; conditions: isolate 4, 18 h
Staphylococcus aureus [10] = assay: Antibacterial activity against methicillin resistant Staphylococcus aureus isolate 5 after 18 hrs by microdilution method; format: functional; conditions: isolate 5, 18 h
Escherichia coli = assay: Antibacterial activity against Escherichia coli ATCC 25922 after 18 hrs by microdilution method; format: functional; conditions: ATCC 25922, 18 h
Pseudomonas aeruginosa = assay: Antibacterial activity against Pseudomonas aeruginosa NCTC 6749 after 18 hrs by microdilution method; format: functional; conditions: NCTC 6749, 18 h
[11] = Solubility in water at pH 7 by UV-vis spectrophotometric analysis; format: physicochemical
[12] = Octanol-water partition coefficient, logP of the compound after 1 hr by UV-vis spectrophotometric analysis; format: physicochemical

Row | SMILES | MIC (Staphylococcus aureus [1]) | MIC (Staphylococcus aureus [2]) | MIC (Staphylococcus aureus [3]) | MIC [4] | MIC [5] | MIC (Staphylococcus aureus [6]) | MIC (Staphylococcus aureus [7]) | MIC (Staphylococcus aureus [8]) | MIC (Staphylococcus aureus [9]) | MIC (Staphylococcus aureus [10]) | MIC (Escherichia coli) | MIC (Pseudomonas aeruginosa) | solubility [11] | logP at 1 h [12]
1 | CO[C@H]1/C=C/O[C@@]2(C)Oc3c(C)c(O)c4c(O)c(c(C=O)c(O)c4c3C2=O)NC(=O)/C(C)=C\C=C\[C@H](C)[C@H](O)[C@@H](C)[C@@H](O)[C@@H](C)[C@H](OC(C)=O)[C@@H]1C | 2 µg/mL (≈ 2.76 µM) | > 2 µg/mL | > 2 µg/mL | 1 µg/mL (≈ 1.38 µM) | 1 µg/mL (≈ 1.38 µM) | > 2 µg/mL | > 2 µg/mL | > 2 µg/mL | > 2 µg/mL | > 2 µg/mL | > 2 µg/mL | > 2 µg/mL |  | 
2 | CCOC(=O)[C@H](Cc1c[nH]c2ccccc12)NCc1c2c(O)c3c(O)c(C)c4c(c3c1O)C(=O)[C@@](C)(O/C=C/[C@H](OC)[C@@H](C)[C@@H](OC(C)=O)[C@H](C)[C@H](O)[C@H](C)[C@@H](O)[C@@H](C)/C=C/C=C(/C)C(=O)N2)O4 | 0.5 µg/mL (≈ 0.531 µM) | 1 µg/mL (≈ 1.06 µM) | 0.25 µg/mL (≈ 0.265 µM) | 0.063 µg/mL (≈ 0.0669 µM) | 0.063 µg/mL (≈ 0.0669 µM) | 0.5 µg/mL (≈ 0.531 µM) | 0.5 µg/mL (≈ 0.531 µM) | 0.5 µg/mL (≈ 0.531 µM) | 0.5 µg/mL (≈ 0.531 µM) | 0.5 µg/mL (≈ 0.531 µM) | > 2 µg/mL | > 2 µg/mL | 30 µg/mL (≈ 31.8 µM) | 2.48
3 | CCOC(=O)[C@H](Cc1ccccc1)NCc1c2c(O)c3c(O)c(C)c4c(c3c1O)C(=O)[C@@](C)(O/C=C/[C@H](OC)[C@@H](C)[C@@H](OC(C)=O)[C@H](C)[C@H](O)[C@H](C)[C@@H](O)[C@@H](C)/C=C/C=C(/C)C(=O)N2)O4 | 0.063 µg/mL (≈ 0.0698 µM) | 0.125 µg/mL (≈ 0.138 µM) | 0.063 µg/mL (≈ 0.0698 µM) | 0.063 µg/mL (≈ 0.0698 µM) | 0.125 µg/mL (≈ 0.138 µM) | 0.063 µg/mL (≈ 0.0698 µM) | 0.125 µg/mL (≈ 0.138 µM) | 0.125 µg/mL (≈ 0.138 µM) | 0.125 µg/mL (≈ 0.138 µM) | 0.125 µg/mL (≈ 0.138 µM) | > 2 µg/mL | > 2 µg/mL | 50 µg/mL (≈ 55.4 µM) | 2.63
4 | COC(=O)[C@H](Cc1cnc[nH]1)NCc1c2c(O)c3c(O)c(C)c4c(c3c1O)C(=O)[C@@](C)(O/C=C/[C@H](OC)[C@@H](C)[C@@H](OC(C)=O)[C@H](C)[C@H](O)[C@H](C)[C@@H](O)[C@@H](C)/C=C/C=C(/C)C(=O)N2)O4 | 0.25 µg/mL (≈ 0.284 µM) | 1 µg/mL (≈ 1.14 µM) | 0.25 µg/mL (≈ 0.284 µM) | 0.25 µg/mL (≈ 0.284 µM) | 0.125 µg/mL (≈ 0.142 µM) | 0.5 µg/mL (≈ 0.569 µM) | 1 µg/mL (≈ 1.14 µM) | 1 µg/mL (≈ 1.14 µM) |  |  |  |  | 150 µg/mL (≈ 171 µM) | 1.72
5 | COC(=O)[C@H](Cc1c[nH]c2ccccc12)NCc1c2c(O)c3c(O)c(C)c4c(c3c1O)C(=O)[C@@](C)(O/C=C/[C@H](OC)[C@@H](C)[C@@H](OC(C)=O)[C@H](C)[C@H](O)[C@H](C)[C@@H](O)[C@@H](C)/C=C/C=C(/C)C(=O)N2)O4 | 0.031 µg/mL (≈ 0.0334 µM) | 0.063 µg/mL (≈ 0.0679 µM) | 0.031 µg/mL (≈ 0.0334 µM) | 0.016 µg/mL (≈ 0.0172 µM) | 0.016 µg/mL (≈ 0.0172 µM) | 0.031 µg/mL (≈ 0.0334 µM) |  |  | 0.063 µg/mL (≈ 0.0679 µM) | 0.063 µg/mL (≈ 0.0679 µM) | > 2 µg/mL | > 2 µg/mL | 60 µg/mL (≈ 64.7 µM) | 2.22
6 | CO[C@H]1/C=C/O[C@@]2(C)Oc3c(C)c(O)c4c(O)c(c(CN[C@@H](Cc5c[nH]c6ccccc56)C(=O)OCc5ccccc5)c(O)c4c3C2=O)NC(=O)/C(C)=C\C=C\[C@H](C)[C@H](O)[C@@H](C)[C@@H](O)[C@@H](C)[C@H](OC(C)=O)[C@@H]1C | 1 µg/mL (≈ 0.996 µM) | 2 µg/mL (≈ 1.99 µM) | 1 µg/mL (≈ 0.996 µM) | 0.25 µg/mL (≈ 0.249 µM) | 0.25 µg/mL (≈ 0.249 µM) | 1 µg/mL (≈ 0.996 µM) |  |  | 1 µg/mL (≈ 0.996 µM) | 1 µg/mL (≈ 0.996 µM) | > 2 µg/mL | > 2 µg/mL | < 10 µg/mL | 2.72
7 | CO[C@H]1/C=C/O[C@@]2(C)Oc3c(C)c(O)c4c(O)c(c(CN[C@@H](Cc5ccccc5)C(=O)OCc5ccccc5)c(O)c4c3C2=O)NC(=O)/C(C)=C\C=C\[C@H](C)[C@H](O)[C@@H](C)[C@@H](O)[C@@H](C)[C@H](OC(C)=O)[C@@H]1C | 0.5 µg/mL (≈ 0.518 µM) | 2 µg/mL (≈ 2.07 µM) | 0.5 µg/mL (≈ 0.518 µM) | 0.125 µg/mL (≈ 0.13 µM) | 0.25 µg/mL (≈ 0.259 µM) | 1 µg/mL (≈ 1.04 µM) |  |  | 1 µg/mL (≈ 1.04 µM) | 1 µg/mL (≈ 1.04 µM) | > 2 µg/mL | > 2 µg/mL | 20 µg/mL (≈ 20.7 µM) | 2.75
8 | CCOC(=O)[C@H](CCCNC(=N)N)NCc1c2c(O)c3c(O)c(C)c4c(c3c1O)C(=O)[C@@](C)(O/C=C/[C@H](OC)[C@@H](C)[C@@H](OC(C)=O)[C@H](C)[C@H](O)[C@H](C)[C@@H](O)[C@@H](C)/C=C/C=C(/C)C(=O)N2)O4 | 1 µg/mL (≈ 1.1 µM) | > 2 µg/mL | 1 µg/mL (≈ 1.1 µM) | 0.25 µg/mL (≈ 0.274 µM) | 0.5 µg/mL (≈ 0.548 µM) | 2 µg/mL (≈ 2.19 µM) | 2 µg/mL (≈ 2.19 µM) | 2 µg/mL (≈ 2.19 µM) |  |  |  |  | 90 µg/mL (≈ 98.7 µM) | 2.22
9 | CCOC(=O)[C@H](Cc1ccc(O)cc1)NCc1c2c(O)c3c(O)c(C)c4c(c3c1O)C(=O)[C@@](C)(O/C=C/[C@H](OC)[C@@H](C)[C@@H](OC(C)=O)[C@H](C)[C@H](O)[C@H](C)[C@@H](O)[C@@H](C)/C=C/C=C(/C)C(=O)N2)O4 | 0.5 µg/mL (≈ 0.544 µM) | 2 µg/mL (≈ 2.18 µM) | 0.5 µg/mL (≈ 0.544 µM) | 0.063 µg/mL (≈ 0.0686 µM) | 0.125 µg/mL (≈ 0.136 µM) | 0.5 µg/mL (≈ 0.544 µM) |  |  | 0.5 µg/mL (≈ 0.544 µM) | 0.5 µg/mL (≈ 0.544 µM) | > 2 µg/mL | > 2 µg/mL | 50 µg/mL (≈ 54.4 µM) | 1.92
10 | COC(=O)[C@H](Cc1ccccc1)NCc1c2c(O)c3c(O)c(C)c4c(c3c1O)C(=O)[C@@](C)(O/C=C/[C@H](OC)[C@@H](C)[C@@H](OC(C)=O)[C@H](C)[C@H](O)[C@H](C)[C@@H](O)[C@@H](C)/C=C/C=C(/C)C(=O)N2)O4 | 0.063 µg/mL (≈ 0.0709 µM) | 0.125 µg/mL (≈ 0.141 µM) | 0.063 µg/mL (≈ 0.0709 µM) | 0.031 µg/mL (≈ 0.0349 µM) | 0.031 µg/mL (≈ 0.0349 µM) | 0.125 µg/mL (≈ 0.141 µM) |  |  | 0.063 µg/mL (≈ 0.0709 µM) | 0.063 µg/mL (≈ 0.0709 µM) | > 2 µg/mL | > 2 µg/mL | 70 µg/mL (≈ 78.7 µM) | 2.47
11 | CO[C@H]1/C=C/O[C@@]2(C)Oc3c(C)c(O)c4c(O)c(c(/C=N/N5CCN(C)CC5)c(O)c4c3C2=O)NC(=O)/C(C)=C\C=C\[C@H](C)[C@H](O)[C@@H](C)[C@@H](O)[C@@H](C)[C@H](OC(C)=O)[C@@H]1C [RIFAMPIN] | 0.008 µg/mL (≈ 0.00972 µM) | 0.016 µg/mL (≈ 0.0194 µM) | 0.008 µg/mL (≈ 0.00972 µM) | 0.004 µg/mL (≈ 0.00486 µM) | 0.008 µg/mL (≈ 0.00972 µM) | 0.016 µg/mL (≈ 0.0194 µM) | 0.016 µg/mL (≈ 0.0194 µM) | 0.016 µg/mL (≈ 0.0194 µM) | 0.016 µg/mL (≈ 0.0194 µM) | 0.016 µg/mL (≈ 0.0194 µM) | > 2 µg/mL | > 2 µg/mL |  | 
12 | CO[C@H]1/C=C/O[C@@]2(C)Oc3c(C)c(O)c4c(O)c(c(CN[C@@H](Cc5ccccc5)C(=O)OC(C)(C)C)c(O)c4c3C2=O)NC(=O)/C(C)=C\C=C\[C@H](C)[C@H](O)[C@@H](C)[C@@H](O)[C@@H](C)[C@H](OC(C)=O)[C@@H]1C | 0.5 µg/mL (≈ 0.537 µM) | 1 µg/mL (≈ 1.07 µM) | 0.5 µg/mL (≈ 0.537 µM) | 0.125 µg/mL (≈ 0.134 µM) | 0.25 µg/mL (≈ 0.269 µM) | 0.5 µg/mL (≈ 0.537 µM) |  |  | 0.5 µg/mL (≈ 0.537 µM) | 0.5 µg/mL (≈ 0.537 µM) | > 2 µg/mL | > 2 µg/mL | 30 µg/mL (≈ 32.2 µM) | 2.66
13 | CCOC(=O)[C@H](CCCCN)NCc1c2c(O)c3c(O)c(C)c4c(c3c1O)C(=O)[C@@](C)(O/C=C/[C@H](OC)[C@@H](C)[C@@H](OC(C)=O)[C@H](C)[C@H](O)[C@H](C)[C@@H](O)[C@@H](C)/C=C/C=C(/C)C(=O)N2)O4 | 2 µg/mL (≈ 2.26 µM) | > 2 µg/mL | 2 µg/mL (≈ 2.26 µM) | 0.5 µg/mL (≈ 0.566 µM) | 1 µg/mL (≈ 1.13 µM) | > 2 µg/mL | > 2 µg/mL | > 2 µg/mL |  |  |  |  | 120 µg/mL (≈ 136 µM) | 2.2
